Holding throughout (assay type): functional
The test system of assay [1] is Aspergillus flavus. Nature of the assay: Antifungal activity against Aspergillus flavus at 25 ug/disk after 48 hr by disk diffusion method. The note with it: read-out: DIZ. For orientation: Agar diffusion results depend on both activity and mobility in agar.
Assay [2] concerns Xanthomonas oryzae. In words: Antibacterial activity against Xanthomonas oryzae by microdilution method.
Assay [3] relates to Bacillus subtilis. In words: Antibacterial activity against Bacillus subtilis at 25 ug/disk after 24 hr by disk diffusion method. To be noted: read-out: DIZ.
In assay [4] the test system is Penicillium sp. In words: Antifungal activity against Penicillium sp. at 25 ug/disk after 48 hr by disk diffusion method. The note with it: read-out: DIZ.
The test system of assay [5] is Fusarium oxysporum. In words: Antifungal activity against Fusarium oxysporum after 48 hr by microdilution method. (Dilution methods test growth across graded concentrations, often in twofold steps.)
Assay [6] deals with Penicillium sp. In words: Antifungal activity against Penicillium sp. after 48 hr by microdilution method.
Assay [7] relates to Aspergillus niger. In words: Antifungal activity against Aspergillus niger at 25 ug/disk after 48 hr by disk diffusion method. To be noted: read-out: DIZ.
The subject of assay [8] is Fusarium verticillioides. In words: Antifungal activity against Fusarium verticillioides after 48 hr by microdilution method.
Assay [9] concerns Escherichia coli. Nature of the assay: Antibacterial activity against Escherichia coli at 25 ug/disk after 24 hr by disk diffusion method. The note with it: read-out: DIZ.
Assay [10] deals with Aspergillus flavus. In words: Antifungal activity against Aspergillus flavus after 48 hr by microdilution method.
The test system of assay [11] is Trichoderma. In words: Antifungal activity against Trichoderma sp. at 25 ug/disk after 48 hr by disk diffusion method. To be noted: read-out: DIZ.
Assay [12] relates to Pseudomonas fluorescens. Nature of the assay: Antibacterial activity against Pseudomonas fluorescens at 25 ug/disk after 24 hr by disk diffusion method. The note with it: read-out: DIZ.
Assay [13] has as its system Fusarium oxysporum. In words: Antifungal activity against Fusarium oxysporum at 25 ug/disk after 48 hr by disk diffusion method. The note with it: read-out: DIZ.
Assay [14] relates to Xanthomonas oryzae. Nature of the assay: Antibacterial activity against Xanthomonas oryzae at 25 ug/disk after 24 hr by disk diffusion method. The note with it: read-out: DIZ.
The test system of assay [15] is Xanthomonas euvesicatoria pv. sesami. Nature of the assay: Antibacterial activity against Xanthomonas campestris pv. sesami by microdilution method.
Assay [16] concerns Trichoderma. In words: Antifungal activity against Trichoderma sp. after 48 hr by microdilution method.
The subject of assay [17] is Fusarium verticillioides. In words: Antifungal activity against Fusarium verticillioides at 25 ug/disk after 48 hr by disk diffusion method. To be noted: read-out: DIZ.
The subject of assay [18] is Escherichia coli. In words: Antibacterial activity against Escherichia coli by microdilution method.
For assay [19], the system named is Aspergillus niger. In words: Antifungal activity against Aspergillus niger after 48 hr by microdilution method.
The subject of assay [20] is Pseudomonas fluorescens. In words: Antibacterial activity against Pseudomonas fluorescens by microdilution method.
The subject of assay [21] is Xanthomonas euvesicatoria pv. sesami. In words: Antibacterial activity against Xanthomonas campestris pv. sesami at 25 ug/disk after 24 hr by disk diffusion method. To be noted: read-out: DIZ.
The subject of assay [22] is Bacillus subtilis. In words: Antibacterial activity against Bacillus subtilis by microdilution method.

Converted amounts (≈) assume the structure as drawn.

As usually defined, the MIC is the lowest concentration found to suppress growth. Lower therefore signals inhibition by little substance. Regarding `CCc1ccc(CCOc2ccc(C3=NOC(CO)C3)cc2)nc1` (configuration not stated), the zone of inhibition at 25 µg/disc with Aspergillus flavus [1] is 9 mm; in the assay with Bacillus subtilis [3], 14 mm; in the assay on Penicillium sp. [4], 11 mm; in the assay with Aspergillus niger [7] it was 8 mm; in the assay with Escherichia coli [9], 13 mm; with Trichoderma [11], 15 mm. Also, the zone of inhibition at 25 µg/disc amounted to 17 mm in the assay with Pseudomonas fluorescens [12]; 15 mm with Fusarium oxysporum [13]; 13 mm with Xanthomonas oryzae [14]; 12 mm with Fusarium verticillioides [17]; 13 mm in assay [21]. For the same compound, the minimal inhibitory concentration (MIC) in the assay on Xanthomonas oryzae [2] came out at 12 µg/mL (≈ 36.8 µM); in the assay with Fusarium oxysporum [5], 10 µg/mL (≈ 30.6 µM); against Penicillium sp. [6], 9 µg/mL (≈ 27.6 µM); in the assay with Fusarium verticillioides [8], 10 µg/mL (≈ 30.6 µM); in the assay with Aspergillus flavus [10], 16 µg/mL (≈ 49 µM); in assay [15], 10 µg/mL (≈ 30.6 µM). Also, the MIC turned out to be 13 µg/mL (≈ 39.8 µM) with Trichoderma [16]; 14 µg/mL (≈ 42.9 µM) against Escherichia coli [18]; 15 µg/mL (≈ 46 µM) with Aspergillus niger [19]; 12 µg/mL (≈ 36.8 µM) against Pseudomonas fluorescens [20]; 18 µg/mL (≈ 55.1 µM) with Bacillus subtilis [22].

The values above are taken from ChEMBL document CHEMBL3045518, “Synthesis of novel 3-[5-ethyl-2-(2-phenoxy-ethyl)-pyridin]-5-substituted isoxazoline libraries via 1,3-dipolar cycloaddition and evaluation of antimicrobial activities” (2006).
